Laboratory results as given in PMC5660193, “The antimalarial activity of the pantothenamide α-PanAm is via inhibition of pantothenate phosphorylation” (Scientific Reports, 2017).
Changes are numbered by the printed parent chain.

Columns and labels:
Type in all cases: biochemical
His6-CAB1 [1] = target: T1, His6-CAB1 (Saccharomyces cerevisiae, UniProt Q04430); assay: Kinase-Glo luminescent assay; settings: 10 µM compound, 100 µM pantothenate, 100 µM ATP, 10 mM MgCl2, pH 7.4, room temperature
T1 sequence (Q04430 1-367): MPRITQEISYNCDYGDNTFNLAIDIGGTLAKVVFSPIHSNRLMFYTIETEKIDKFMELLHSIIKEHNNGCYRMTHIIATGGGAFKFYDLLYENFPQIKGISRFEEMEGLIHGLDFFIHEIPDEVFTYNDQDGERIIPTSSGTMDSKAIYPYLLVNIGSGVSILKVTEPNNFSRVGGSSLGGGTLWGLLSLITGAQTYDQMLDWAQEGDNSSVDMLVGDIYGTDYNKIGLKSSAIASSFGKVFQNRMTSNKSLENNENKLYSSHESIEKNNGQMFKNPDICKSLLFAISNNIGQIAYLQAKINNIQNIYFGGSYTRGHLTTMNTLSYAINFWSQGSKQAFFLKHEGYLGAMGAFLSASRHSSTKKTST

Cab1p (yeast PanK) = target: T2, Cab1p (yeast PanK) (Saccharomyces cerevisiae, UniProt Q04430); assay: radioactive pantothenate kinase assay, double reciprocal plots; settings: competitive with pantothenate; 2.5 mM ATP, 2.5 mM MgCl2, pH 7.4, 30 °C; enzyme source for Ki not restated (yeast extract as for Km)
T2 construct: gene CAB1; native untagged enzyme in cell-free extract of wild-type yeast
T2 sequence (Q04430 1-367): T1 sequence (Q04430 1-367)

His6-CAB1 [2] = target: T1, His6-CAB1; assay: radioactive pantothenate kinase assay; settings: 50 µM 14C-pantothenate, 2.5 mM ATP, 2.5 mM MgCl2, pH 7.4
His6-CAB1 [3] = target: T3, His6-CAB1 (Saccharomyces cerevisiae, UniProt Q04430, G351S); assay: radioactive pantothenate kinase assay; settings: 50 µM 14C-pantothenate, 2.5 mM ATP, 2.5 mM MgCl2, pH 7.4
T3 sequence (Q04430 1-367 G351S): T1 sequence (Q04430 1-367) with G351S

His6-CAB1 [4] = target: T1, His6-CAB1; assay: Kinase-Glo ATP depletion and LC-MS of phosphorylated product; settings: 10 µM compound, 100 µM ATP, no pantothenate, 10 mM MgCl2, pH 7.4, room temperature

| Ki (Cab1p (yeast PanK)) [µM] | Structure (SMILES) | inhibition at 10 μM (His6-CAB1 [1]) | relative enzyme activity (His6-CAB1 [2]) | relative enzyme activity (His6-CAB1 [3]) | Kinase-Glo ATP depletion and LC-MS of phosphorylated product (His6-CAB1 [4]) |
| --- | --- | --- | --- | --- | --- |
|  | CSc1cccc(NC(=O)CCc2c(C)nc3c4cccnc4nn3c2C)c1 [NED7, 3-(2,4-dimethylpyrido-[2′,3′:3,4]pyrazolo[1,5-a]pyrimidin-3-yl)-N-(3-(methylthio)phenyl) propanamide] | resulted in increased luciferase activity in the presence of Cab1 |  |  |  |
| 10.1 ± 0.85 | CC(CNC(=O)[C@H](O)C(C)(C)CO)C(=O)NCCc1ccccc1 (stereo partly drawn) [α-PanAm, (2 R)-2,4-dihydroxy-3,3-dimethyl-N-(2-methyl-3-oxo-3-(phenethylamino)propyl)butanamide] |  | PanK activities of purified His6-CAB1 and His6-cab1^G351S mutant proteins were measured | PanK activities of purified His6-CAB1 and His6-cab1^G351S mutant proteins were measured | detected the mass of phosphorylated α-PanAm (P-α-PanAm) in the presence of active Cab1 |
